# How the values were obtained:
# Orco [1] = biological target: T1, Orco (Drosophila melanogaster, UniProt Q9VNB5, K339N); assay: GCaMP6f Ca2+ imaging of OSNs, concentration-response
# T1 construct: OrX/OrcoK339N in olfactory sensory neurons (Orco1 null background), ex vivo antenna; with OrX
# Orco [2] = biological target: T2, Orco (Drosophila melanogaster, UniProt Q9VNB5); assay: as above
# T2 construct: native OrX/OrcoWT in olfactory sensory neurons, ex vivo antenna; with OrX
# T2 sequence (Q9VNB5 1-486): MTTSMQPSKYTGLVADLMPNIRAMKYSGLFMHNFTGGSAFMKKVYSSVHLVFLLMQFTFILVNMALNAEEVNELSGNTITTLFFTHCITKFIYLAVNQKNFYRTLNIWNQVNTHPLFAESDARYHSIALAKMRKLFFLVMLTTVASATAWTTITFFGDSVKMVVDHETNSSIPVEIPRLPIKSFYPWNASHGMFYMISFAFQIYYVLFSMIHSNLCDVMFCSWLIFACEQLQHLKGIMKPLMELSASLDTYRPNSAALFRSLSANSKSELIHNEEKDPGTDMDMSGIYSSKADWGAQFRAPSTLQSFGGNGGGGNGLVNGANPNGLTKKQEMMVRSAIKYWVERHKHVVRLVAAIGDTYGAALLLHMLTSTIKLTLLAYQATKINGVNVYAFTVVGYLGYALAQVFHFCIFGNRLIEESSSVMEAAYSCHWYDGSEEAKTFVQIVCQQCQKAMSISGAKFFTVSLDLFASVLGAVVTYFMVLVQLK
# Or22a = biological target: T3, Or22a (Drosophila melanogaster, UniProt P81909); assay: GCaMP6f Ca2+ imaging of Or22a OSNs, concentration-response
# T3 construct: Or22a/OrcoWT in Or22a-expressing olfactory sensory neurons, ex vivo antenna; with Orco
# T3 sequence (P81909 1-397): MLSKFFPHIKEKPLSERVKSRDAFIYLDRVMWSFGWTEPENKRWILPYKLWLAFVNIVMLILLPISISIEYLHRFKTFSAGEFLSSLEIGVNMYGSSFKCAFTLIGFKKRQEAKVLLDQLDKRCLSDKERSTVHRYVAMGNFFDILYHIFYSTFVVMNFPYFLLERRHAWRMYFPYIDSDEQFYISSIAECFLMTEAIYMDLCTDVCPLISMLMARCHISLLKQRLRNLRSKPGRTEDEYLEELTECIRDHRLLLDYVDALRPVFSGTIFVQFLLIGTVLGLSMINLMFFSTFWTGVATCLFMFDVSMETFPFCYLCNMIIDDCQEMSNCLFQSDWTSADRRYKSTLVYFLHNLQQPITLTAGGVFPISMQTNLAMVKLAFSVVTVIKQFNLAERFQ
# T3 sequence (Q9VNB5 1-486 partner): T2 sequence (Q9VNB5 1-486)
# T1 sequence (Q9VNB5 whole entry K339N): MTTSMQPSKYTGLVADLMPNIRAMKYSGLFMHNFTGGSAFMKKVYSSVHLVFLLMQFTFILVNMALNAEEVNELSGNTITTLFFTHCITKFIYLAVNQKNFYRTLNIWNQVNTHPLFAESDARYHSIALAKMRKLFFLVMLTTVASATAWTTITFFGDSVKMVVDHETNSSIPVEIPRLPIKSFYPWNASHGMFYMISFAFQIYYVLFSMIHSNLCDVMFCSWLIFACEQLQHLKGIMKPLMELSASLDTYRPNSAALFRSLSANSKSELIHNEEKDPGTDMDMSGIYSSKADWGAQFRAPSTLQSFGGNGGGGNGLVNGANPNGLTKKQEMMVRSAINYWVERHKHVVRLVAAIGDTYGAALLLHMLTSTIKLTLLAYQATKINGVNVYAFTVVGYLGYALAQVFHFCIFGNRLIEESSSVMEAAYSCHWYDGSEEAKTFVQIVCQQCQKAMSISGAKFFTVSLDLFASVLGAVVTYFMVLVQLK
EC50 (Or22a),SMILES,EC50 (Orco [1]),EC50 (Orco [2])
–,"CCc1ccc(NC(=O)CSc2nnc(-c3cccnc3)n2CC)cc1 [VUAA1, 2-(4-Ethyl-5-(pyridin-3-yl)-4H-1,2,4-triazol-3-ylthio)-N-(4-ethylphenyl) acetamide]",85 µM,88 µM
13 µM,CCCCCC(=O)OCC [ethyl hexanoate],–,–

# — article PMC7881240, “Calmodulin regulates the olfactory performance in Drosophila melanogaster” (Scientific Reports, 2021)
